In patent US20030027722A1, “Influencing the activity of plant growth regulators” (priority 1998, published 2003):

How the values were obtained:
rose = experiment: rooting powder comparison, rooting and development of scions, rose; assay type: in vivo; design: key: 1: The compounds with the best relative overall effect on rooting and development were placed in category I; categories which ranged from 1 to 6
Excerpt: (§1) d) In Table 2 standard indol butyric acid (IBA), which is the active component in most currently used rooting powders, is compared with indol hexanolic acid (IHA) and two BSA adducts, both—coupled, namely IBA and indole acetic acid (BSA-N-IAA). The effect on rooting and the plant development (stem growth, outgrowth of new shoots, synchronicity of growth of a population of plants) were inter alia factors determining the place in the categories which ranged from 1 to 6. The compounds with the best relative overall effect on rooting and development were placed in category I. Rooting and subsequent development of scions for different types of herbaceous and woody plants differs largely for those types of plants. A rose cultivar, “enermus stur cinq”, was used as an example of a recalcitrant woody plant. The chrysanthemum species “regan” is an example of an easy to root herbaceous plant.

[1] = system: rose, chrysanthemum, carnation; experiment: rooting powder comparison, average over species; assay type: in vivo
Excerpt: as §1

chrysanthemum = experiment: rooting powder comparison, rooting and development of scions, chrysanthemum; assay type: in vivo; design: key: 1: The compounds with the best relative overall effect on rooting and development were placed in category I; categories which ranged from 1 to 6
Excerpt: as §1

carnation = experiment: rooting powder comparison, rooting and development of scions, carnation; assay type: in vivo; design: key: 1: The compounds with the best relative overall effect on rooting and development were placed in category I; categories which ranged from 1 to 6
Excerpt: as §1

tissue explants of rose = experiment: shoot formation on tissue explants of rose; assay type: cell-based
Method: It was also observed that tissue explants of rose when treated with IBA (normal addition) or IHA, respectively, formed about 50 times more shoots (2 shoots versus 100 per 20 tissue explants) in the latter case.
In the studies for new applications of PGRs and/or elicitors, which were performed within the framework of the present invention, several new and unexpected observations were made. […] Furthermore, the inventors established that elicitors do cause a statistically significant growth retardation of all tissues, as can be illustrated for rose shoots. This effect was enhanced by PGR(s), in casu antigibberelins, i.e. paclobutrasol. […] Finally the observation was made that when tissue explants of rose were treated with respectively IBA (normal addition) or IHA, in the last case about 50 times more shoots were formed (2 shoots versus 100 per 20 tissue explants).

apple and rose = experiment: root induction in apple and rose; assay type: in vivo
Excerpt: It is also possible to offer a hormone precursor, which is converted into an active hormone by metabolic processes. Indole-3-hexanoic acid (I-H-A) is converted by two beta-oxidation steps (the enzymes therefor are present in the plant) into the auxin indole-3-acetic acid (I-A-A). I-H-A is thus a special form of a slow-release source.

Brassica napens = experiment: microspore embryogenesis; assay type: cell-based; conditions: in combination with colchicine
apple stalk slices = experiment: rooting regeneration on apple stalk slices with elicitors; assay type: cell-based
Method: The effect of the elicitors on rooting regeneration on apple stalk slices was studied. The stalk slices were incubated on medium with elicitors in combination with a sub-optimal auxin concentration (1 μM indolebutyric acid or 1 μM indoleacetic acid) which were added for 1 or 3 days to the plant tissue for testing. The increase was measured in the number of regenerated roots compared to the auxin control.

saintpaulia = experiment: shoot regeneration in saintpaulia; assay type: cell-based; conditions: elicitor 10^−10 M
Method: (§2) The elicitor uridine was tested on shoot regeneration in saintpaulia, lateral root formation in pea, cell division in tobacco and root induction in larkspur and apple.

pea = experiment: lateral root formation in pea; assay type: in vivo; conditions: elicitor 10^−8 to 10^−16 M
Method: as §2

tobacco = experiment: cell division in tobacco; assay type: cell-based; conditions: elicitor 10^−10 M
Method: as §2

larkspur = experiment: root induction in larkspur; assay type: in vivo; conditions: root formation larkspur, elicitor 10^−10 M
Method: as §2

O=C(O)CCCCCc1c[nH]c2ccccc12 [IHA, Indole-3-hexanoic acid]
category of relative overall effect on rooting and plant development (rose; rose enermus stur cinq (recalcitrant woody plant)): 1 | category of relative overall effect on rooting and plant development (rose; rose n. brier): 1 | average category ([1]; average over the species tested): 1.33 | overall assessment of rooting powders from Table 2 ([1]; in vivo): very generally applicable and very effective | category of relative overall effect on rooting and plant development (chrysanthemum; chrys. regan (easy to root herbaceous plant)): 2 | category of relative overall effect on rooting and plant development (chrysanthemum; chrys. snowdon): 1 | category of relative overall effect on rooting and plant development (carnation; carnation m. brilj.): 1 | category of relative overall effect on rooting and plant development (carnation; carnation tempo): 2 | shoots formed (tissue explants of rose): 100 shoots per 20 tissue explants | times more shoots than with IBA (tissue explants of rose): about 50 | activity in root induction relative to I-A-A (apple and rose): thirty times more active than I-A-A

CCCCCCCCC(=O)O [nonanoic acid]
increase in microspore embryogenesis (Brassica napens): 125% | increased regeneration in relation to control (auxin alone) (apple stalk slices; elicitor 0.1-1 μM, roots, apple, 1 μM indolebutyric or indoleacetic acid, 1 or 3 days): 300%

O=c1ccn([C@@H]2O[C@H](CO)[C@@H](O)[C@H]2O)c(=O)[nH]1 [uridine]
increased regeneration in relation to control (auxin alone) (saintpaulia): 100% | increased regeneration in relation to control (auxin alone) (pea): 100% | increased regeneration in relation to control (auxin alone) (tobacco): 75% | increased regeneration in relation to control (auxin alone) (larkspur): 50% | increased regeneration in relation to control (auxin alone) (apple stalk slices; elicitor 10^−10 M, apple stalk slices): 75%
